{
  "source": "paper PMC10079702",
  "about": "“Study of the inhibition effects on glutathione peroxidase immobilized on MNPs using a stopped-flow microfluidic system” (Analytical and Bioanalytical Chemistry, 2023)",
  "target": "T1, glutathione peroxidase (GPx) (Bos taurus, UniProt P00435)",
  "T1 construct": "gene GPX1; selenoprotein; EDC-coupled to magnetic nanoparticles for the assay",
  "T1 sequence (P00435 1-205)": "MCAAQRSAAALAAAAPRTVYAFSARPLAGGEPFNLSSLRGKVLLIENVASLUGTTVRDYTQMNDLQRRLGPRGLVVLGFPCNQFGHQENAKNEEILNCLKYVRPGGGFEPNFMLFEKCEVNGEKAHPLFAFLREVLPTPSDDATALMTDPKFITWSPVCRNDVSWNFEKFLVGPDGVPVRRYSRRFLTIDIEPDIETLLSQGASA",
  "assay": "stopped-flow microfluidic fluorimetry of competing homovanillic acid dimerization, Lineweaver-Burk",
  "assay_type": "biochemical",
  "details": "GPx immobilized on magnetic nanoparticles; GSH, H2O2, HVA; Tris-HCl 50 mmol/L pH 9, 30 °C; stated non-competitive; listed as at 1 µmol/L inhibitor; printed unit is not a concentration",
  "source_text": "stopped-flow microfluidic fluorimetry of competing homovanillic acid dimerization, Lineweaver-Burk on glutathione peroxidase (GPx)",
  "data": [
    {"smiles": "CC(C)(C)OO", "note": "[t-butyl hydroperoxide]", "values": [
      {"measurement": "KI", "result": 117.09, "unit": "µmol/L/s"}
    ]}
  ]
}
